Measured values as given in PubChem BioAssay AID248 (DTP/NCI, 2004).
Several values for one entry are separate records, joined by “and”; a condition that tells them apart may be missing. Equal values may be shown once. Inconclusive results and toxic doses are left out. Cut-off read from the data, not from the text of the source: active = T/C of 150% or more; inactive = T/C below 125%. Square brackets hold non-standard residues; d marks the D form. Peptide text beside a SMILES is read from it. ξ: configuration not given here. ξE = NC(CCC(=O)O)C(=O)O

Tested on: L1210 leukemia ip in BDF1 mice, survival T/C
Test: NCI In Vivo Anticancer Drug Screen. Data for tumor model L1210 Leukemia (intraperitoneal) in B6D2F1 (BDF1) mice
Settings: endpoint: mean survival time, higher = longer survival
How it was run: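 Transplanted-tumor mice were given test agent; controls received vehicle only. Survival readings from the two groups were divided (treated over control).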

[1] = dose: 400.0 mg/kg/injection, schedule: Q01DX001 (ip), vehicle: carboxymethylcellulose (CMC)
[2] = dose: 100.0 mg/kg/injection, schedule: Q01DX001 (ip), vehicle: saline
[3] = dose: 200.0 mg/kg/injection, schedule: Q01DX001 (ip), vehicle: saline
[4] = dose: 400.0 mg/kg/injection, schedule: Q01DX001 (ip), vehicle: saline
[5] = dose: 100.0 mg/kg/injection, schedule: Q01DX009 (ip), vehicle: saline with Tween-80
[6] = dose: 200.0 mg/kg/injection, schedule: Q01DX009 (ip), vehicle: saline with Tween-80
[7] = dose: 400.0 mg/kg/injection, schedule: Q01DX009 (ip), vehicle: saline with Tween-80
[8] = dose: 100.0 mg/kg/injection, schedule: Q04DX003 (ip), vehicle: saline
[9] = dose: 200.0 mg/kg/injection, schedule: Q04DX003 (ip), vehicle: saline
[10] = dose: 100.0 mg/kg/injection, schedule: Q04DX003 (ip), vehicle: saline with Tween-80
[11] = dose: 200.0 mg/kg/injection, schedule: Q04DX003 (ip), vehicle: saline with Tween-80
[12] = dose: 400.0 mg/kg/injection, schedule: Q04DX003 (ip), vehicle: saline with Tween-80
[13] = dose: 100.0 mg/kg/injection, schedule: Q04DX002 (ip), vehicle: saline with Tween-80
[14] = dose: 100.0 mg/kg/injection, schedule: Q04DX003 (ip), vehicle: Klucel (hydroxypropylcellulose) (HPC)
[15] = dose: 200.0 mg/kg/injection, schedule: Q04DX003 (ip), vehicle: Klucel (hydroxypropylcellulose) (HPC)
[16] = dose: 400.0 mg/kg/injection, schedule: Q04DX003 (ip), vehicle: Klucel (hydroxypropylcellulose) (HPC)

Measured: T/C

NCCc1c[nH]c2ccc(O)cc12 (tested in a mixture with another compound)
inactive: dose: 120.0 mg/kg/injection, schedule: Q01DX009 (ip), vehicle: carboxymethylcellulose (CMC) 107 % of control | [1] 108 % of control | dose: 600.0 mg/kg/injection, schedule: Q01DX001 (ip), vehicle: carboxymethylcellulose (CMC) 108 % of control | dose: 600.0 mg/kg/injection, schedule: Q01DX009 (ip), vehicle: carboxymethylcellulose (CMC) 102 % of control | dose: 800.0 mg/kg/injection, schedule: Q01DX001 (ip), vehicle: carboxymethylcellulose (CMC) 114 % of control | dose: 800.0 mg/kg/injection, schedule: Q01DX009 (ip), vehicle: carboxymethylcellulose (CMC) 119 % of control | dose: 1000.0 mg/kg/injection, schedule: Q01DX001 (ip), vehicle: carboxymethylcellulose (CMC) 106 % of control

Clc1ccc(C2OCCO2)c(Cl)c1
inactive: [2] 97 % of control | [3] 92 % of control | [4] 87 % of control

CC(=O)OC1CCC2(C)C(=CCC3C2CCC2(C)C(OC(=O)c4ccccc4)CCC32)C1 (centres undefined)
inactive: [5] 89 % of control | [6] 110 % of control | [7] 96 % of control

CC1=CC(C)(C)NC(=S)N1c1ccc(N(C)C)cc1
inactive: dose: 112.0 mg/kg/injection, schedule: Q01DX Z (ip), vehicle: methylcellulose (MC) 101 % of control | dose: 166.0 mg/kg/injection, schedule: Q01DX Z (ip), vehicle: methylcellulose (MC) 96 % of control | dose: 250.0 mg/kg/injection, schedule: Q01DX Z (ip), vehicle: methylcellulose (MC) 94 % of control | dose: 375.0 mg/kg/injection, schedule: Q01DX Z (ip), vehicle: methylcellulose (MC) 96 % of control

NC(CCC(=O)O)C(=O)NCC(=O)O (centres undefined) (H-[ξE]-Gly-OH)
inactive: dose: 12.5 mg/kg/injection, schedule: Q04DX002 (ip), vehicle: saline 96 % of control | dose: 25.0 mg/kg/injection, schedule: Q04DX002 (ip), vehicle: saline 102 % of control | dose: 50.0 mg/kg/injection, schedule: Q04DX002 (ip), vehicle: saline 90 % of control

CCCCCCC(CCCCCC)(CCCCCC)B1OCCO1
inactive: dose: 100.0 mg/kg/injection, schedule: Q01DX009 (ip), vehicle: saline sonified 96 % of control | [8] 102 % of control | dose: 200.0 mg/kg/injection, schedule: Q01DX009 (ip), vehicle: saline sonified 106 % of control | [9] 102 % of control | dose: 400.0 mg/kg/injection, schedule: Q01DX009 (ip), vehicle: saline sonified 95 % of control | dose: 400.0 mg/kg/injection, schedule: Q04DX003 (ip), vehicle: saline 96 % of control

COC(=O)C(Cc1c[nH]c2ccccc12)[N+](C)(C)C (centres undefined)
inactive: dose: 35.0 mg/kg/injection, schedule: Q01DX Z (ip), vehicle: saline 95 % of control | dose: 50.0 mg/kg/injection, schedule: Q01DX Z (ip), vehicle: saline 97 % of control

CN(C)c1ccc(C=C(c2ccc(N)cc2)c2ccc(N)cc2)cc1
inactive: [10] 93 % of control | [11] 96 % of control | [12] 96 % of control

COc1ccc2c(c1)CCC(=O)O2
inactive: dose: 50.0 mg/kg/injection, schedule: Q01DX001 (ip), vehicle: carboxymethylcellulose (CMC) 100 % of control | dose: 100.0 mg/kg/injection, schedule: Q01DX001 (ip), vehicle: carboxymethylcellulose (CMC) 96 % of control | dose: 100.0 mg/kg/injection, schedule: Q04DX003 (ip), vehicle: saline sonified 102 % of control | dose: 200.0 mg/kg/injection, schedule: Q01DX001 (ip), vehicle: carboxymethylcellulose (CMC) 100 % of control | dose: 200.0 mg/kg/injection, schedule: Q04DX003 (ip), vehicle: saline sonified 104 % of control | [1] 100 % of control | dose: 400.0 mg/kg/injection, schedule: Q04DX003 (ip), vehicle: saline sonified 102 % of control

COc1ccc(OC(=O)Nc2ccc(Cl)cc2[N+](=O)[O-])cc1
inactive: [5] 95 % of control and 96 % of control | [13] 95 % of control and 98 % of control | [10] 97 % of control | [6] 99 % of control and 106 % of control | dose: 200.0 mg/kg/injection, schedule: Q04DX002 (ip), vehicle: saline with Tween-80 95 % of control and 101 % of control | [11] 110 % of control | [7] 99 % of control and 103 % of control | dose: 400.0 mg/kg/injection, schedule: Q04DX002 (ip), vehicle: saline with Tween-80 95 % of control and 98 % of control | [12] 100 % of control

CCCCCCCC/C=C\CCCCCCCCNP(=O)(OC)OC
inactive: dose: 25.0 mg/kg/injection, schedule: Q04DX002 (ip), vehicle: saline with Tween-80 96 % of control | dose: 50.0 mg/kg/injection, schedule: Q04DX002 (ip), vehicle: saline with Tween-80 92 % of control | [13] 101 % of control and 92 % of control

O=C(O)c1ccc([N+](=O)[O-])cc1Sc1ccsc1
inactive: [2] 98 % of control | [3] 98 % of control | [4] 98 % of control

NC(N)=Nc1nc(N)nc(N)n1
inactive: dose: 50.0 mg/kg/injection, schedule: Q01DX009 (ip), vehicle: saline with Tween-80 108 % of control

O=C(c1ccccc1)C(C(C(=O)c1ccccc1)N1CCOCC1)N1CCOCC1 (centres undefined)
inactive: dose: 50.0 mg/kg/injection, schedule: Q01DX001 (ip), vehicle: saline 94 % of control | [2] 94 % of control | [3] 102 % of control | [4] 94 % of control

CC(C)CCCC(C)CCC1=C(O)c2ccccc2C(=O)C1=O (centres undefined)
inactive: dose: 100.0 mg/kg/injection, schedule: Q01DX001 (ip), vehicle: Klucel (hydroxypropylcellulose) (HPC) 102 % of control | [14] 101 % of control | dose: 200.0 mg/kg/injection, schedule: Q01DX001 (ip), vehicle: Klucel (hydroxypropylcellulose) (HPC) 98 % of control | [15] 97 % of control | dose: 400.0 mg/kg/injection, schedule: Q01DX001 (ip), vehicle: Klucel (hydroxypropylcellulose) (HPC) 100 % of control | [16] 97 % of control

CC1NC1(c1ccccc1)[n+]1ccccc1 (centres undefined)
inactive: dose: 50.0 mg/kg/injection, schedule: Q01DX009 (ip), vehicle: saline 97 % of control | dose: 100.0 mg/kg/injection, schedule: Q01DX009 (ip), vehicle: saline 95 % of control | [8] 105 % of control | [9] 105 % of control

NC(=O)NN=C1CCCCCCCCCCC1
inactive: dose: 100.0 mg/kg/injection, schedule: Q01DX001 (ip), vehicle: other 95 % of control | [10] 97 % of control | dose: 200.0 mg/kg/injection, schedule: Q01DX001 (ip), vehicle: other 95 % of control | [11] 105 % of control | dose: 400.0 mg/kg/injection, schedule: Q01DX001 (ip), vehicle: other 103 % of control | [12] 94 % of control

Nc1c(I)cc([N+](=O)[O-])cc1I
inactive: [14] 95 % of control | [15] 93 % of control | [16] 98 % of control

[N-]=[N+]=C1C=CC=C1C(=O)O
inactive: dose: 12.5 mg/kg/injection, schedule: Q01DX009 (ip), vehicle: Klucel (hydroxypropylcellulose) (HPC) 98 % of control | dose: 25.0 mg/kg/injection, schedule: Q01DX009 (ip), vehicle: Klucel (hydroxypropylcellulose) (HPC) 103 % of control | dose: 50.0 mg/kg/injection, schedule: Q01DX009 (ip), vehicle: Klucel (hydroxypropylcellulose) (HPC) 97 % of control | dose: 100.0 mg/kg/injection, schedule: Q04DX003 (ip), vehicle: acetone 94 % of control | dose: 200.0 mg/kg/injection, schedule: Q04DX003 (ip), vehicle: acetone 93 % of control | dose: 400.0 mg/kg/injection, schedule: Q04DX003 (ip), vehicle: acetone 91 % of control

Nc1ccccc1SC1CC(=O)N(c2ccc(F)cc2)C1=O (centres undefined)
inactive: dose: 100.0 mg/kg/injection, schedule: Q04DX003 (ip), vehicle: carboxymethylcellulose (CMC) 92 % of control | dose: 200.0 mg/kg/injection, schedule: Q04DX003 (ip), vehicle: carboxymethylcellulose (CMC) 92 % of control | dose: 400.0 mg/kg/injection, schedule: Q04DX003 (ip), vehicle: carboxymethylcellulose (CMC) 91 % of control

O=[N+]([O-])c1ccccc1N1N=NC2CC/C(=C\c3ccc(Cl)cc3)C21N1CCOCC1 (centres undefined)
inactive: dose: 100.0 mg/kg/injection, schedule: Q04DX002 (ip), vehicle: saline 108 % of control | dose: 200.0 mg/kg/injection, schedule: Q04DX002 (ip), vehicle: saline 89 % of control | dose: 400.0 mg/kg/injection, schedule: Q04DX002 (ip), vehicle: saline 92 % of control
